We go through 4 molecules from US20220213433A1, “Three-Dimensional Cross-Linked Scaffolds of Cord Blood Plasma and Their Use” (SANFORD HEALTH, priority 2019, published 2022).

Entries after “also recorded” stand apart in the source; their conditions may differ.

A short description of data set [1]: scaffold stability: scaffold weight at day 0 and after 3 weeks. The conditions noted are these: tranexamic acid in the range of 5 mg/ml (tested 0-5 mg/ml); 3 week period. In kind it is physicochemical, human. Here is the method:
(§1) FIG. 2(a-b). Chemical characterization of cord blood plasma 3D culture model referred as InvitroWOMB (iWOMB).
(§2) Referring to FIG. 2, cross-linking time was assessed by measuring the time necessary to achieve matrix cross-linking using three relevant cross-linkers of the blood coagulation process including thrombin (0-5 mg/ml) and CaCl2 (0-10 mg/ml). The stabilization effects of preventing fibrin degradation and stability improvement in the scaffold was assessed by surveying an antifibrinolytic agent such as tranexamic acid (0-5 mg/ml). The stability of the scaffold was studied by measuring each scaffold weight at day 0 and again measuring scaffold weight at the conclusion of a 3 week time period.

Data set [2] can be described thus: time to achieve matrix cross-linking of cord blood plasma. In kind it is physicochemical, human. As to the method:
as §1, §2

The next data set deals with GDM-exposed hu-MSC. Put plainly: hu-MSC growth assay with metformin, live cells counted by Trypan blue. In kind it is cell-based, human. The conditions noted are these: 25 μM metformin; 20K cells/well; 72 hour cell counts. An excerpt: (§3) FIG. 9(a-d). Precision capabilities. (a) Using a custom human antibody array we measured relative expression of cytokines and growth factors in cord plasma for scaffolds from subjects with Type 1 (T1D), Type 2 (T2D) and gestational diabetes (GDM). Bar graphs represent relative expression by densitometry compared to negative control (membrane background). (b) Hu-MSC from control, T1D, T2D and GDM donors (n=2-3/group) were uniformly plated (50K live cells/well) in stem cell media to collagen-coated, 24-well plates. Trypan blue was used to count live cells every 24 hours and growth was measured and compared. Bar graphs represent fold change from baseline to 72 hours; *p<0.05 by one-way ANOVA with Dunnett post-test, (c) Control hu-MSCs were treated with metformin at increasing doses (0, 25, 50 and 100 μM) and growth was followed as previously described. […] Bar graphs represent the number of cells/well remaining at 72 hours after initial plating of 20K cells/well.
(§4) To determine whether iWOMB is a useful tool for precision-based assays, we used umbilical cord plasma and hu-MSC from control and diabetic pregnancy to identify diabetes-related differences in proteins in the DME and/or programmed cell fate. […] Using our customized antibody array as detailed above (FIG. 8), we compared relative expression of cytokines and growth factors in cord plasma protein. Just as fibrinogen levels are higher in cord plasma from diabetic pregnancies, so are other factors. Specifically, umbilical cord plasma cytokines (IL-6, IL-10), insulin like growth factor −1 (IGF-1) and hepatocyte growth factor (HGF) from Type 1 diabetic pregnancy (TID) are higher than in plasma from Type 2 (T2D) and gestational diabetes (GDM) (FIG. 9a). […] Every 24 hours cells were detached using 0.25% trypsin/EDTA and live cells were counted using Trypan blue staining and a hemocytometer. Live cells were recorded at each time point for […]. […] Every 24 hours cells were detached using 0.25% trypsin/EDTA and live cells were counted using Trypan blue and a hemocytometer. Live cells were recorded at each time point for 72 hours. […]

The next data set concerns control hu-MSC. The data set is described as above. The format is cell-based, human.
Excerpt: as §3, §4

`NC[C@H]1CC[C@H](C(=O)O)CC1` [Tranexamic acid, tranexamic acid]: in data set [1], the “scaffold stability (prevention of fibrin degradation)” value is “best improvement in scaffold stability”.
For thrombin, in data set [2] (thrombin 0.5 to 5 mg/ml (tested 0-5 mg/ml)), the cross-linking time result is “fastest crosslinking”.
On to `[Ca+2].[Cl-].[Cl-]` [CaCl2, calcium chloride], for which the cross-linking time result in data set [2] (CaCl2 1.25 to 5 mg/ml (tested 0-10 mg/ml)) is on record as “fastest crosslinking”.
On to `CN(C)C(=N)N=C(N)N` [metformin], for which the “growth of GDM exposed hu-MSC” value in the data set on GDM-exposed hu-MSC is “increased growth; also recorded: improves”. For the same molecule, the “growth of control hu-MSC” value in the data set on control hu-MSC (25 μM metformin (level reported in umbilical cord blood), 20K cells/well, 72 hours) is recorded as “does not impair growth”. Also, in the data set with control hu-MSC (normal/control hu-MSC, metformin 0, 25, 50, 100 uM, live cells counted every 24 h for 72 hours), the “hu-MSC cell growth (number of live cells over time)” value is listed as “impairs hu-MSC growth in a dose dependent manner; also recorded: dose-dependent decline in cell growth”.
